In this assay the target is T1, Recombinant (1-346) HPK1 (h) (Homo sapiens, UniProt Q92918).
T1 construct: Recombinant (1-346) HPK1 (h) is incubated with 8 mM MOPS pH 7.0
T1 sequence (Q92918 1-346): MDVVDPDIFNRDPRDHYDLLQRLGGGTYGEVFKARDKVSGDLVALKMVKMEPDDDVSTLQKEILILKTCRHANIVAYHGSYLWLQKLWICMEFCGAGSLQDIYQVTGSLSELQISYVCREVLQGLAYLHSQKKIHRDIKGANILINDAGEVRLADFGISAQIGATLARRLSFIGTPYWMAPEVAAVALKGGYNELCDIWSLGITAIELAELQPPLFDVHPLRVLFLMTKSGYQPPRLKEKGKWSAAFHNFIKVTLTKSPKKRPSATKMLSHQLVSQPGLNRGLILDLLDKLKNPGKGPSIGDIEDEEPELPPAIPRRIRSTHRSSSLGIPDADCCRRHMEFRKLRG
Briefly: HPK1 Human STE Kinase Enzymatic Radiometric Assay. It counts as biochemical. As to conditions: read-out: HPK1 IC50 nM Range*. The method, then: A stock solution of 10 mM of test compound is prepared in DMSO. The compound plate was prepared by 3-fold and 9-point serial dilutions. […] The reaction is initiated by The addition of the Mg/ATP mix. After incubation for 40 minutes at RT, the reaction is stopped by the addition of phosphoric acid to a concentration of 0.5%.
For `CC(C)N1CCN(c2ccc(-c3cc(-c4cc5c(F)c[nH]c(=O)c5cc4F)c(N)nc3F)cc2)CC1` [I-547, 6-(2-amino-6-fluoro-5-(4-(4-isopropylpiperazin-1-yl)phenyl)pyridin-3-yl)-4,7-difluoroisoquinolin-1(2H)-one], the 50% inhibitory concentration (IC50) lay within 0.1 to 10 nM.
As for `Nc1nc(F)c(-c2ccc(N3CCOCC3)c(CN3CCC3)c2)cc1-c1ccc2c(c1)CCNC2=O` [I-549, 6-(2-amino-5-(3-(azetidin-1-ylmethyl)-4-morpholinophenyl)-6-fluoropyridin-3-yl)-3,4-dihydroisoquinolin-1(2H)-one], the IC50 fell in the range of 11 to 100 nM.
As for `Nc1nc(F)c(-c2ccc(N3CCOCC3)c(CN3CCC3)c2)cc1-c1cc2c(cc1F)C(=O)NCC2` [I-550, 6-(2-amino-5-(3-(azetidin-1-ylmethyl)-4-morpholinophenyl)-6-fluoropyridin-3-yl)-7-fluoro-3,4-dihydroisoquinolin-1(2H)-one], the concentration for half-maximal inhibition (IC50) lay within 11 to 100 nM.
With `CCN(C)Cc1cc(-c2cc(-c3cc4c(cc3F)C(=O)NCC4)c(N)nc2F)ccc1C1CCOCC1` [I-552, 6-(2-amino-5-(3-((ethyl(methyl)amino)methyl)-4-(tetrahydro-2H-pyran-4-yl)phenyl)-6-fluoropyridin-3-yl)-7-fluoro-3,4-dihydroisoquinolin-1(2H)-one] the figure was 11 to 100 nM.
Turning to `COCCN(C)Cc1cc(-c2cc(-c3ccc4c(c3)CCNC4=O)c(N)nc2F)ccc1N1CCOCC1` [I-553, 6-(2-amino-6-fluoro-5-(3-(((2-methoxyethyl)(methyl)amino)methyl)-4-morpholinophenyl)pyridin-3-yl)-3,4-dihydroisoquinolin-1(2H)-one], the IC50 lay within 0.1 to 10 nM.
In the case of `COCCN(C)Cc1cc(-c2cc(-c3cc4c(cc3F)C(=O)NCC4)c(N)nc2F)ccc1N1CCOCC1` [I-554, 6-(2-amino-6-fluoro-5-(3-(((2-methoxyethyl)(methyl)amino)methyl)-4-morpholinophenyl)pyridin-3-yl)-7-fluoro-3,4-dihydroisoquinolin-1(2H)-one], the IC50 lay in the range of 11 to 100 nM.
Take `CN(C)Cc1cc(-c2cc(-c3ccc4c(c3)CCNC4=O)c(N)nc2F)ccc1OCC(F)F` [I-555, 6-(2-amino-5-(4-(2,2-difluoroethoxy)-3-((dimethylamino)methyl)phenyl)-6-fluoropyridin-3-yl)-3,4-dihydroisoquinolin-1(2H)-one]: the IC50 is 11 to 100 nM.
Turning to `CN(C)Cc1cc(-c2cc(-c3cc4c(cc3F)C(=O)NCC4)c(N)nc2F)ccc1OCC(F)F` [I-556, 6-(2-amino-5-(4-(2,2-difluoroethoxy)-3-((dimethylamino)methyl)phenyl)-6-fluoropyridin-3-yl)-7-fluoro-3,4-dihydroisoquinolin-1(2H)-one], the IC50 is 11 to 100 nM.
For the molecule `Nc1nc(F)c(-c2ccc(C3CCOCC3)c(CN3CCCC3)c2)cc1-c1ccc2c(c1)CCNC2=O` [I-557, 6-(2-amino-6-fluoro-5-(3-(pyrrolidin-1-ylmethyl)-4-(tetrahydro-2H-pyran-4-yl)phenyl)pyridin-3-yl)-3,4-dihydroisoquinolin-1(2H)-one], the IC50 was 11 to 100 nM.
In the case of `Nc1nc(F)c(-c2ccc(C3CCOCC3)c(CN3CCCC3)c2)cc1-c1cc2c(cc1F)C(=O)NCC2` [I-558, 6-(2-amino-6-fluoro-5-(3-(pyrrolidin-1-ylmethyl)-4-(tetrahydro-2H-pyran-4-yl)phenyl)pyridin-3-yl)-7-fluoro-3,4-dihydroisoquinolin-1(2H)-one], the IC50 was in the range of 11 to 100 nM.
In the case of `Nc1nc(F)c(-c2ccc(N3CCOCC3)c(CN3CCCCC3)c2)cc1-c1ccc2c(c1)CCNC2=O` [I-559, 6-(2-amino-6-fluoro-5-(4-morpholino-3-(piperidin-1-ylmethyl)phenyl)pyridin-3-yl)-3,4-dihydroisoquinolin-1(2H)-one], the IC50 was 11 to 100 nM.
Regarding `Nc1nc(F)c(-c2ccc(N3CCOCC3)c(CN3CCCCC3)c2)cc1-c1cc2c(cc1F)C(=O)NCC2` [I-560, 6-(2-amino-6-fluoro-5-(4-morpholino-3-(piperidin-1-ylmethyl)phenyl)pyridin-3-yl)-7-fluoro-3,4-dihydroisoquinolin-1(2H)-one], the 50% inhibitory concentration (IC50) was in the range of 11 to 100 nM.
As to `CN(C)Cc1cc(-c2cc(-c3cc4c(F)c[nH]c(=O)c4cc3F)c(N)nc2F)ccc1N1CCOCC1` [I-561, 6-(2-amino-5-(3-((dimethylamino)methyl)-4-morpholinophenyl)-6-fluoropyridin-3-yl)-4,7-difluoroisoquinolin-1(2H)-one], the IC50 lay within 0.1 to 10 nM.
`CN(C)Cc1cc(-c2cc(-c3cc4c(F)c[nH]c(=O)c4cc3F)c(N)nc2F)ccc1C1CCOCC1` [I-562, 6-(2-amino-5-(3-((dimethylamino)methyl)-4-(tetrahydro-2H-pyran-4-yl)phenyl)-6-fluoropyridin-3-yl)-4,7-difluoroisoquinolin-1(2H)-one]: the IC50 lay in the range of 0.1 to 10 nM.
With `CO[C@@H]1CCN(Cc2cc(-c3cc(-c4ccc5c(c4)CCNC5=O)c(N)nc3F)ccc2N2CCOCC2)C1` [I-563, (R)-6-(2-amino-6-fluoro-5-(3-((3-methoxypyrrolidin-1-yl)methyl)-4-morpholinophenyl)pyridin-3-yl)-3,4-dihydroisoquinolin-1(2H)-one] the figure was 11 to 100 nM.
`CO[C@@H]1CCN(Cc2cc(-c3cc(-c4cc5c(cc4F)C(=O)NCC5)c(N)nc3F)ccc2N2CCOCC2)C1` [I-564, (R)-6-(2-amino-6-fluoro-5-(3-((3-methoxypyrrolidin-1-yl)methyl)-4-morpholinophenyl)pyridin-3-yl)-7-fluoro-3,4-dihydroisoquinolin-1(2H)-one]: the IC50 was in the range of 11 to 100 nM.
With `CO[C@H]1CCN(Cc2cc(-c3cc(-c4ccc5c(c4)CCNC5=O)c(N)nc3F)ccc2N2CCOCC2)C1` [I-565, (S)-6-(2-amino-6-fluoro-5-(3-((3-methoxypyrrolidin-1-yl)methyl)-4-morpholinophenyl)pyridin-3-yl)-3,4-dihydroisoquinolin-1(2H)-one], the IC50 fell in the range of 0.1 to 10 nM.
For the molecule `CO[C@H]1CCN(Cc2cc(-c3cc(-c4cc5c(cc4F)C(=O)NCC5)c(N)nc3F)ccc2N2CCOCC2)C1` [I-566, (S)-6-(2-amino-6-fluoro-5-(3-((3-methoxypyrrolidin-1-yl)methyl)-4-morpholinophenyl)pyridin-3-yl)-7-fluoro-3,4-dihydroisoquinolin-1(2H)-one], the IC50 fell in the range of 0.1 to 10 nM.
With `Cc1cc2cc(-c3cc(-c4ccc(N5CCN(CCCC(F)F)CC5)cc4)c(F)nc3N)cc(F)c2c(=O)[nH]1` [I-567, 6-(2-amino-5-(4-(4-(4,4-difluorobutyl)piperazin-1-yl)phenyl)-6-fluoropyridin-3-yl)-8-fluoro-3-methylisoquinolin-1(2H)-one], the IC50 was in the range of 0.1 to 10 nM.
With `CC(=O)N1CCC(Oc2ccc(-c3cc(-c4ccc5c(c4)CCNC5=O)c(N)nc3F)cc2CN(C)C)CC1` [I-568, 6-(5-(4-((1-acetylpiperidin-4-yl)oxy)-3-((dimethylamino)methyl)phenyl)-2-amino-6-fluoropyridin-3-yl)-3,4-dihydroisoquinolin-1(2H)-one] the figure was 0.1 to 10 nM; with `CC(=O)N1CCC(Oc2ccc(-c3cc(-c4cc5c(cc4F)C(=O)NCC5)c(N)nc3F)cc2CN(C)C)CC1` [I-569, 6-(5-(4-((1-acetylpiperidin-4-yl)oxy)-3-((dimethylamino)methyl)phenyl)-2-amino-6-fluoropyridin-3-yl)-7-fluoro-3,4-dihydroisoquinolin-1(2H)-one], 11 to 100 nM.
With `CC(C)N1CCN(c2ccc(-c3cc(-c4cc5c(Cl)c[nH]c(=O)c5cn4)c(N)nc3F)cc2)CC1` [I-570, 6-(2-amino-6-fluoro-5-(4-(4-isopropylpiperazin-1-yl)phenyl)pyridin-3-yl)-4-chloro-2,7-naphthyridin-1(2H)-one] the figure was 0.1 to 10 nM; with `Cc1c[nH]c(=O)c2c(F)cc(-c3cc(-c4ccc(N5CCN(C(C)C)CC5)cc4)c(F)nc3N)cc12` [I-571, 6-(2-amino-6-fluoro-5-(4-(4-isopropylpiperazin-1-yl)phenyl)pyridin-3-yl)-8-fluoro-4-methylisoquinolin-1(2H)-one], 0.1 to 10 nM; with `Cc1[nH]c(=O)c2cc(F)c(-c3cc(-c4ccc(N5CCN(C(C)C)CC5)cc4)c(F)nc3N)cc2c1F` [I-572, 6-(2-amino-6-fluoro-5-(4-(4-isopropylpiperazin-1-yl)phenyl)pyridin-3-yl)-4,7-difluoro-3-methylisoquinolin-1(2H)-one], 0.1 to 10 nM.
With `COCCN(C)Cc1cc(-c2cc(-c3ccc4c(c3)CCNC4=O)c(N)nc2F)ccc1C1CCOCC1` [I-573, 6-(2-amino-6-fluoro-5-(3-(((2-methoxyethyl)(methyl)amino)methyl)-4-(tetrahydro-2H-pyran-4-yl)phenyl)pyridin-3-yl)-3,4-dihydroisoquinolin-1(2H)-one] the figure was 0.1 to 10 nM; with `COCCN(C)Cc1cc(-c2cc(-c3cc4c(cc3F)C(=O)NCC4)c(N)nc2F)ccc1C1CCOCC1` [I-574, 6-(2-amino-6-fluoro-5-(3-(((2-methoxyethyl)(methyl)amino)methyl)-4-(tetrahydro-2H-pyran-4-yl)phenyl)pyridin-3-yl)-7-fluoro-3,4-dihydroisoquinolin-1(2H)-one], 0.1 to 10 nM; with `C[C@@H]1CN(c2ccc(-c3cc(-c4ccc5c(c4)CCNC5=O)c(N)nc3F)cc2CN(C)C)CCO1` [I-575, (R)-6-(2-amino-5-(3-((dimethylamino)methyl)-4-(2-methylmorpholino)phenyl)-6-fluoropyridin-3-yl)-3,4-dihydroisoquinolin-1(2H)-one], 11 to 100 nM.

One may read the IC50 as the midpoint of a concentration-inhibition curve.
